Like-named read-outs stand apart in the source and are kept apart here.
System: HCV replicon (NS5A1b) in Huh-7 cells
Test: microbe, parasite or virus in culture
Assay type: cell-based
Details: Hepatitis C virus
Method: Compounds claimed herein are tested for the ability to inhibit viral replication of the Hepatitis C replicon in cultured cells in which the HCV replicon construct has been incorporated. The HCV replicon system was described by Bartenschlager, et. al (Science, 285, pp. 110-113 (1999)). The replicon system is predictive of in vivo anti-HCV activity; compounds that are active in humans uniformly evidence activity in the replicon assay.
In this assay HCV replicon containing cells are treated with different concentrations of the test compound to ascertain the ability of the test compound to suppress replication of the HCV replicon. As a positive control, HCV replicon-containing cells are treated with different concentrations of interferon alpha, a known inhibitor of HCV replication. The replicon assay system includes Neomycin Phosphotransferase (NPT) as a component of the replicon itself in order to detect the transcription of replicon gene products in the host cell. Cells in which the HCV replicon is actively replicating have high levels of NPT; the level of NPT is proportional to HCV replication. […] The NPT level of each sample is measured using a captured ELISA.
A protocol for testing compounds for the ability to inhibit viral replication of the Hepatitis C replicon cultured cells in which the replicon construct has been incorporated, follows.
The HCV replicon contains, 5′-3′, the HCV-IRES, the neomycin phosphotransferase (neo) gene, the IRES of encephalomyocarditis virus, which directs translation of HCV sequences NS3 to NS5B, and the 3′-NTR. The sequence of the HCV replicon has been deposited in GenBank (Accession no. AJ242652).
The replicon is transfected into Huh-7 cells using standard methods such as electroporation.
The equipment and materials include, but are not limited to, Huh-7 HCV replicon-containing cells, maintenance media (DMEM (Dulbecco's modified Eagle media) supplemented with 10% FBS, L-glutamine, non-essential amino acids, penicillin (100 units/ml), streptomycin (100 micrograms/ml), and 500 micrograms/ml of Geneticin (G418), screening media (DMEM supplemented with 10% FBS, L-glutamine, non-essential amino acids, penicillin (100 units/ml) and streptomycin (100 micrograms/ml), 96 well tissue culture plates (flat bottom), 96 well plates (U bottom for drug dilution), Interferon alpha for positive control, fixation reagent (such as methanol: acetone), primary antibody (rabbit anti-NPTII), secondary antibody: Eu-N1 1, and enhancement solution.
HCV replicon-containing cells support high levels of viral RNA replicon replication when their density is suitable. Over-confluency causes decreased viral RNA replication. Therefore, cells must be kept growing in log phase in the presence of 500 micrograms/ml of G418. Generally, cells should be passed twice a week at 1:4-6 dilution. Cell maintenance is conducted as follows:
HCV replicon-containing cells are examined under a microscope to ensure that cells growing well. Cells are rinsed once with PBS and 2 ml trypsin is added. The cell/trypsin mixture is incubated at 37° C. in a CO2 incubator for 3-5 minutes. After incubation 10 ml of complete media is added to stop the trypsinization reaction. Cells are blown gently, put into a 15 ml tube, and spun at 1200 rpm for 4 minutes. The trypsin/medium solution is removed. Medium (5 ml) is added and the cells are mixed carefully. The cells are counted.
The cells are then seeded onto 96-well plates at a density of 6000-7500 cells/100 microliters/well (6-7.5×10^5 cells/10 ml/plate). The plates are then incubated at 37° C. in a 5% CO2 incubator.
Cells are examined under a microscope approximated 24 hours after seeding and prior to adding drugs. If counting and dilution were performed correctly, cells are 60-70% confluent and nearly all cells should attach and spread evenly in the well.
HCV replicon-containing cells are rinsed with once PBS once; 2 mls of trypsin are then added. Cells are incubated at 37° C. in a 5% CO2 incubator for 3-5 minutes. […]

[1] = 72 h, NS5A1b, HCV replicon-containing Huh-7 cells, three days, read-out: EC50 (μM) NS5A1b
[2] = Huh-7, Example 9 replicon assay, read-out: EC50 values in HCV replicon assay

| SMILES | EC50 [1] | EC50 [2] |
| --- | --- | --- |
| COC(=O)N[C@H](C(=O)N1[C@H](c2nc3cc(-c4cc5ccc4CCc4ccc(c(-c6ccc7[nH]c([C@@H]8C[C@@H]9CCCC[C@@H]9N8C(=O)[C@@H](NC(=O)OC)C(C)C)nc7c6)c4)CC5)ccc3[nH]2)C[C@@H]2CCCC[C@@H]21)C(C)C [Compound 43] | 2.85 nM |  |
| COC(=O)N[C@H](C(=O)N1CCC[C@H]1c1nc(-c2ccc(-c3cc4ccc3CCc3ccc(c(-c5c[nH]c([C@@H]6CCCN6C(=O)[C@@H](NC(=O)OC)C(C)C)n5)c3)CC4)cc2)c[nH]1)C(C)C [Compound 47] | 5.02 nM |  |
| C=CCOC(=O)N[C@H](C(=O)N1CCC[C@H]1c1nc(-c2ccc(-c3cc4ccc3CCc3ccc(c(-c5ccc(-c6c[nH]c([C@@H]7CCCN7C(=O)[C@@H](NC(=O)OCC=C)c7ccccc7)n6)cc5)c3)CC4)cc2)c[nH]1)c1ccccc1 [Compound 59] | 548 nM |  |
| COC(=O)N[C@H](C(=O)N1[C@H](c2nc3cc(-c4cc5ccc4CCc4ccc(c(-c6ccc7[nH]c([C@@H]8C[C@@H]9CCCC[C@@H]9N8C(=O)[C@@H](NC(=O)OC)[C@@H](C)O)nc7c6)c4)CC5)ccc3[nH]2)C[C@@H]2CCCC[C@@H]21)[C@@H](C)O [Compound 128] | 0.008 nM |  |
| COC(=O)N1CCC[C@H]1C(=O)N1CCC[C@H]1c1nc2cc(-c3cc4ccc3CCc3ccc(c(-c5ccc6[nH]c([C@@H]7CCCN7C(=O)[C@@H]7CCCN7C(=O)OC)nc6c5)c3)CC4)ccc2[nH]1 [Compound 51] | > 1000 nM |  |
| C=CCOC(=O)N[C@@H](CCSC)C(=O)N1CCC[C@H]1c1nc(-c2ccc(-c3cc4ccc3CCc3ccc(c(-c5ccc(-c6c[nH]c([C@@H]7CCCN7C(=O)[C@H](CCSC)NC(=O)OCC=C)n6)cc5)c3)CC4)cc2)c[nH]1 [Compound 57] | > 1000 nM |  |
| COC(=O)N1CCC[C@H]1C(=O)N1CCC[C@H]1c1nc(-c2ccc(-c3cc4ccc3CCc3ccc(c(-c5ccc(-c6c[nH]c([C@@H]7CCCN7C(=O)[C@@H]7CCCN7C(=O)OC)n6)cc5)c3)CC4)cc2)c[nH]1 [Compound 54] | > 1000 nM |  |
| COC(=O)N[C@@H](CCSC)C(=O)N1CCC[C@H]1c1nc2cc(-c3cc4ccc3CCc3ccc(c(-c5ccc6[nH]c([C@@H]7CCCN7C(=O)[C@H](CCSC)NC(=O)OC)nc6c5)c3)CC4)ccc2[nH]1 [Compound 50] | 8.41 nM |  |
| COC(=O)N[C@@H](CCSC)C(=O)N1CCC[C@H]1c1nc(-c2ccc(-c3cc4ccc3CCc3ccc(c(-c5ccc(-c6c[nH]c([C@@H]7CCCN7C(=O)[C@H](CCSC)NC(=O)OC)n6)cc5)c3)CC4)cc2)c[nH]1 [Compound 53] | 211 nM |  |
| C=CCOC(=O)N1CCC[C@H]1C(=O)N1CCC[C@H]1c1nc(-c2ccc(-c3cc4ccc3CCc3ccc(c(-c5ccc(-c6c[nH]c([C@@H]7CCCN7C(=O)[C@@H]7CCCN7C(=O)OCC=C)n6)cc5)c3)CC4)cc2)c[nH]1 [Compound 58] | > 1000 nM |  |
| COC(=O)N[C@H](C(=O)N1[C@H](c2nc(-c3ccc(-c4cc5ccc4CCc4ccc(c(-c6ccc(-c7c[nH]c([C@@H]8C[C@@H]9CCCC[C@@H]9N8C(=O)[C@@H](NC(=O)OC)c8ccccc8)n7)cc6)c4)CC5)cc3)c[nH]2)C[C@@H]2CCCC[C@@H]21)c1ccccc1 [Compound 62] | 75 nM |  |
| COC(=O)N[C@@H](CCSC)C(=O)N1[C@H](c2nc(-c3ccc(-c4cc5ccc4CCc4ccc(c(-c6ccc(-c7c[nH]c([C@@H]8C[C@@H]9CCCC[C@@H]9N8C(=O)[C@H](CCSC)NC(=O)OC)n7)cc6)c4)CC5)cc3)c[nH]2)C[C@@H]2CCCC[C@@H]21 [Compound 61] | 75.2 nM |  |
| COC(=O)N[C@H](C(=O)N1C[C@H](C)C[C@H]1c1nc2cc(-c3cc4ccc3CCc3ccc(c(-c5ccc6[nH]c([C@@H]7C[C@@H](C)CN7C(=O)[C@@H](NC(=O)OC)C(C)C)nc6c5)c3)CC4)ccc2[nH]1)C(C)C [Compound 66] | 0.005 nM |  |
| COC(=O)N[C@H](C(=O)N1[C@H](c2nc(-c3ccc(-c4cc5ccc4CCc4ccc(c(-c6ccc(-c7c[nH]c([C@@H]8C[C@@H]9CCCC[C@@H]9N8C(=O)[C@@H](NC(=O)OC)C(C)C)n7)cc6)c4)CC5)cc3)c[nH]2)C[C@@H]2CCCC[C@@H]21)C(C)C [Compound 60] | 128 nM |  |
| COC(=O)N[C@@H](CCC#N)C(=O)N1[C@H](c2nc3cc(-c4cc5ccc4CCc4ccc(c(-c6ccc7[nH]c([C@@H]8C[C@@H]9CCCC[C@@H]9N8C(=O)[C@H](CCC#N)NC(=O)OC)nc7c6)c4)CC5)ccc3[nH]2)C[C@@H]2CCCC[C@@H]21 [Compound 110] | 0.006 nM |  |
| C=CCOC(=O)N[C@H](C(=O)N1CCC[C@H]1c1nc(-c2ccc(-c3cc4ccc3CCc3ccc(c(-c5ccc(-c6c[nH]c([C@@H]7CCCN7C(=O)[C@@H](NC(=O)OCC=C)C(C)C)n6)cc5)c3)CC4)cc2)c[nH]1)C(C)C [Compound 55] | > 1000 nM |  |
| COC(=O)N1CCC[C@H]1C(=O)N1[C@H](c2nc(-c3ccc(-c4cc5ccc4CCc4ccc(c(-c6ccc(-c7c[nH]c([C@@H]8C[C@@H]9CCCC[C@@H]9N8C(=O)[C@@H]8CCCN8C(=O)OC)n7)cc6)c4)CC5)cc3)c[nH]2)C[C@@H]2CCCC[C@@H]21 [Compound 63] | 899 nM |  |
| CC(C)(C)OC(=O)N1[C@H](c2nc3ccc(B4OC(C)(C)C(C)(C)O4)cc3[nH]2)C[C@@H]2CCCC[C@@H]21 [Compound 16, (2S,3aS,7aS)-tert-butyl 2-(6-(4,4,5,5-tetramethyl-1,3,2-dioxaborolan-2-yl)-1H-benzo[d]imidazol-2-yl)octahydro-1H-indole-1-carboxylate] |  | ≤ 10000 nM |
| CC(C)(C)OC(=O)Nc1ccc(B2OC(C)(C)C(C)(C)O2)cc1NC(=O)OC(C)(C)C [Compound 25, di-tert-butyl (4-(4,4,5,5-tetramethyl-1,3,2-dioxaborolan-2-yl)-1,2-phenylene)dicarbamate] |  | ≤ 10000 nM |
| COC(=O)N[C@H](C(=O)N1[C@H](c2nc3cc(-c4cc5ccc4CCc4ccc(c(-c6ccc7[nH]c([C@@H]8C[C@@H]9CCCC[C@@H]9N8C(=O)[C@@H](NC(=O)OC)[C@@H](C)OC)nc7c6)c4)CC5)ccc3[nH]2)C[C@@H]2CCCC[C@@H]21)[C@@H](C)OC [Compound 111] | 0.005 nM |  |
| COC(=O)N[C@H](C(=O)N1CCC[C@H]1c1nc(-c2ccc(-c3cc4ccc3CCc3ccc(c(-c5ccc(-c6c[nH]c([C@@H]7CCCN7C(=O)[C@@H](NC(=O)OC)C(C)C)n6)cc5)c3)CC4)cc2)c[nH]1)C(C)C [Compound 40] | 0.012 nM | ≤ 10000 nM |
| COC(=O)N[C@H](C(=O)N1CCC[C@H]1c1ncc(-c2ccc(C34CC(c5ccc(-c6cnc([C@@H]7CCCN7C(=O)[C@@H](NC(=O)OC)C(C)C)[nH]6)cc5)(C3)C4)cc2)[nH]1)C(C)C [Compound 44] | 4.08 nM |  |
| COC(=O)N[C@H](C(=O)N1CCC[C@H]1c1nc(-c2ccc(-c3cc4ccc3CCc3ccc(c(-c5ccc(-c6c[nH]c([C@@H]7CCCN7C(=O)[C@@H](NC(=O)OC)c7ccccc7)n6)cc5)c3)CC4)cc2)c[nH]1)c1ccccc1 [Compound 52] | 9.83 nM |  |
| COC(=O)N[C@H](C(=O)N1CCC[C@H]1c1nc2cc(-c3cc4ccc3CCc3ccc(c(-c5ccc6[nH]c([C@@H]7CCCN7C(=O)[C@@H](NC(=O)OC)c7ccccc7)nc6c5)c3)CC4)ccc2[nH]1)c1ccccc1 [Compound 49] | 10.2 nM |  |
| COC(=O)N[C@H](C(=O)N1CCC[C@H]1c1nc2cc(-c3cc4ccc3CCc3ccc(c(-c5ccc6[nH]c([C@@H]7CCCN7C(=O)[C@@H](NC(=O)OC)C(C)C)nc6c5)c3)CC4)ccc2[nH]1)C(C)C [Compound 45] | < 3.2 nM |  |
| COC(=O)N[C@H](C(=O)N1C(c2nc3ccc(-c4cc5ccc4CCc4ccc(c(-c6ccc7nc(C8C[C@@H]9CCCC[C@@H]9N8C(=O)[C@@H](NC(=O)OC)C(C)C)n(COC(=O)[C@@H](N)C(C)C)c7c6)c4)CC5)cc3n2COC(=O)[C@@H](N)C(C)C)C[C@@H]2CCCC[C@@H]21)C(C)C (stereo partly drawn) [Compound 130] | 0.009 nM |  |

From patent US10092547B2, “Substituted aliphanes, cyclophanes, heteraphanes, heterophanes, hetero- heteraphanes and metallocenes useful for treating HCV infections” (priority 2011, dated 2018)
